Here are results for four compounds from patent US20100016357A1, “Use of Beta-Aminoalcohols for the Treatment of Inflammatory Disorders and Pain” (SOSEI R & D LTD., priority 2006, published 2010).

One test addresses T1, Beta2 (Cavia porcellus, UniProt Q8K4Z4).
T1 construct: from tissue; host or cells: guinea-pig trachea rings
As to the kind of experiment: Beta2 Agonism Functional Assay (inhibition of carbachol-stimulated tracheal muscle twitch). Type of test: cell-based. Particulars: Guinea-pig trachea ring preparations contracted with carbachol. How it is done:
Guinea-pig trachea ring preparations were suspended in Kreb's solution containing indomethacin. […] Beta2 agonism for each test compound was determined by its dose-dependant inhibition of carbachol-stimulated tracheal muscle twitch.

Test [1] deals with LPS-induced TNFα and IL1β cytokine production. Description: LPS Mouse Assay (serum cytokines by ELISA). The conditions noted are these: mice, i.p. or oral, 30 minutes before 1 mg/kg LPS i.p.; serum 2 hours after LPS. It is filed as in vivo, Balb C ByJ mice. As for the experimental part: 7 week old Balb C ByJ mice (24-28 g) were administered, either by i.p. (5 ml/kg) or oral (10 ml/kg) administration, with vehicle or test article. 30 minutes later these animals were challenged with an intraperitoneal injection of 1 mg/kg LPS. 2 hours after LPS challenge blood samples were collected under light isoflurane anaesthesia into normal tubes by retro-orbital puncture. Samples were allowed to clot at room temperature and then spun at 6000 g for 3 min at 4° C. Serum was stored at −20° C. until use. Serum TNFα and IL-10 levels were analysed in duplicate by ELISA technique.

In general, IC50 refers to the concentration that gives 50% inhibition. Read a low IC50 as greater potency in that assay.

T1 sequence (Q8K4Z4 whole entry): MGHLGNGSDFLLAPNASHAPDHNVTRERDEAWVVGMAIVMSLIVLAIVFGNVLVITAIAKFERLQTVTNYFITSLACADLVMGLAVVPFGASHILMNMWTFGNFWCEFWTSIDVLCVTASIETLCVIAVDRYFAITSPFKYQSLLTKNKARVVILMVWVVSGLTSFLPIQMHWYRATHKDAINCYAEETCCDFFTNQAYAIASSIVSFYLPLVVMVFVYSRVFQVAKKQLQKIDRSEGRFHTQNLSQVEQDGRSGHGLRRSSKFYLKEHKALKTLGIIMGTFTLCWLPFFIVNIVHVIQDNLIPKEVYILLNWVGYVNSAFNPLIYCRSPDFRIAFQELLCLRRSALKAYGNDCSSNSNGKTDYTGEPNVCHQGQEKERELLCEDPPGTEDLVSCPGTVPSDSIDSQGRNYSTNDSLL

Take `Nc1c(Cl)cc(C(O)C2CCCCN2)cc1Cl` (single isomer, unassigned) [Compound 8, (Erythro)-(3,5-dichloro-4-amino-phenyl)-piperidin-2-yl-methanol]: the “beta2 agonism (in words)” value at Beta2 was “poor, beta2 agonists”. In addition, in test [1], the “effect on LPS-induced IL1β production” value was “had effects” and the “effect on LPS-induced TNFα production” value is reported as “had effects”.
Regarding `Nc1c(Cl)cc(C(O)C2CCCCN2)cc1Cl` (single isomer, unassigned) [Compound 7, Erythro-(3,5-dichloro-4-amino-phenyl)-piperidin-2-yl-methanol], on Beta2, the “beta2 agonism (in words)” value is “poor, beta2 agonists”. At Beta2 (inhibition of tracheal muscle twitch), this compound yielded an IC50 greater than 2000 nM. Moreover, in test [1], the “effect on LPS-induced IL1β production” value is “had effects” and the “effect on LPS-induced TNFα production” value was “had effects”.
Regarding `Nc1c(Cl)cc(C(O)C2CCCCN2)cc1Cl` (single isomer, unassigned) [Compound 11, Threo-(3,5-Dichloro-4-amino-phenyl)-piperidin-2-yl-methanol], on Beta2, the “beta2 agonism (in words)” value is on record as “poor, beta2 agonists”. In test [1], the “effect on LPS-induced IL1β production” value is “had effects” and the “effect on LPS-induced TNFα production” value is on record as “had effects”.
For the compound `Nc1c(Cl)cc(C(O)C2CCCCN2)cc1Cl` (single isomer, unassigned) [Compound 10, Threo-(3,5-dichloro-4-amino-phenyl)-piperidin-2-yl-methanol], the “beta2 agonism (in words)” value at Beta2 is “poor, beta2 agonists”. In addition, in test [1], the “effect on LPS-induced IL1β production” value was “had effects” and the “effect on LPS-induced TNFα production” value is recorded as “had effects”.
